# Measurements published in patent publication US20220218852A1, “NOVEL RADIOLABELLED CXCR4-TARGETING COMPOUNDS FOR DIAGNOSIS AND THERAPY” (PROVINCIAL HEALTH SERVICES AUTHORITY, priority 2019, published 2022).
# Read-outs that look alike come from different tables or passages of the source. Positions of bridges follow the written chain, without caps; N, C: chain ends. Non-standard residues stand in square brackets, D forms with d. Residues, ends and D or L forms follow the SMILES beside them. Groups on a side chain read outwards from the residue. *: point of attachment. DOTA = O=C(O)CN1CCN(CC(=O)O)CCN(CC(=O)*)CCN(CC(=O)O)CC1; 2Nal = N[C@@H](Cc1ccc2ccccc2c1)C(=O)O; Lys(iPr) = CC(C)NCCCC[C@H](N)C(=O)O
# Experiments:
# [1] = Biodistribution in Jeko1 tumor-bearing mice; assay type: in vivo; conditions: male, NOD.Cg-Rag1^tm1MomII2rg^tm1Wjl/SzJ (NRG), mouse, iv, total radioactivity
# Method: (§1) For Daudi, Z138, GRANTA519 and Jeko1 xenografts, male NOD.Cg-Rag1^tm1MomII2rg^tm1Wjl/SzJ (NRG) mice were subcutaneously inoculated on the left flank with 5×10^6 cells (100 μL; 1:1 ratio of PBS/Matrigel) and tumors were grown to a size of 200-500 mm^3. For PC-3 xenografts, male NOD.Cg-Rag1^tm1MomII2rg^tm1Wjl/SzJ (NRG) mice were subcutaneously inoculated on the left flank with 5×10^6 PC-3 cells (100 μL; 1:1 ratio of PBS/Matrigel) and tumors were grown to a size of 200-400 mm^3.
# (§2) The mice were euthanized via CO2 inhalation while anesthetized with isoflurane. Tissues were harvested, washed in PBS, blotted dry, weighed, and measured on a Hidex AMG Automatic Gamma Counter.
# [2] = In vivo stability (plasma radio-HPLC) in male NRG mice; conditions: 5 mins
# Text: Radiolabeled peptides (10-30 MBq) was intravenously injected into male NRG mice. After a 5-min, 24-hour or 120-hour uptake period, mice were sedated/euthanized, and blood was collected. The plasma was isolated and analyzed with analytical radio-HPLC following published procedures (Lin et al., Cancer Res. 2015, 75:387-393).
# [3] = Biodistribution in PC3 tumor-bearing mice; assay type: in vivo; conditions: male, NOD.Cg-Rag1^tm1MomII2rg^tm1Wjl/SzJ (NRG), mouse, iv, total radioactivity
# Method: as §1, §2
# [4] = test system: PC3 prostate adenocarcinoma xenografts; test: Biodistribution in PC3 tumor-bearing mice; assay type: in vivo
# Method: as §1, §2
# [5] = adrenals, 1 h, read-out: Biodistribution Adrenals
# [6] = adrenals, 1 h blocked (7.5 μg LY2510924 i.p.), read-out: Biodistribution Adrenals
# [7] = bone, 1 h, read-out: Biodistribution Bone
# [8] = bone, 1 h blocked (7.5 μg LY2510924 i.p.), read-out: Biodistribution Bone
# [9] = brain, 1 h, read-out: Biodistribution Brain
# [10] = brain, 1 h blocked (7.5 μg LY2510924 i.p.), read-out: Biodistribution Brain
# [11] = fat, 1 h, read-out: Biodistribution Fat
# [12] = fat, 1 h blocked (7.5 μg LY2510924 i.p.), read-out: Biodistribution Fat
# [13] = heart, 1 h, read-out: Biodistribution Heart
# [14] = heart, 1 h blocked (7.5 μg LY2510924 i.p.), read-out: Biodistribution Heart
# [15] = intestine, 1 h, read-out: Biodistribution Intestine
# [16] = intestine, 1 h blocked (7.5 μg LY2510924 i.p.), read-out: Biodistribution Intestine
# [17] = kidney, 1 h, read-out: Biodistribution Kidney
# [18] = kidney, 1 h blocked (7.5 μg LY2510924 i.p.), read-out: Biodistribution Kidney
# [19] = liver, 1 h, read-out: Biodistribution Liver
# [20] = liver, 1 h blocked (7.5 μg LY2510924 i.p.), read-out: Biodistribution Liver
# [21] = lung, 1 h, read-out: Biodistribution Lung
# [22] = lung, 1 h blocked (7.5 μg LY2510924 i.p.), read-out: Biodistribution Lung
# [23] = muscle, 1 h, read-out: Biodistribution Muscle
# [24] = muscle, 1 h blocked (7.5 μg LY2510924 i.p.), read-out: Biodistribution Muscle
# [25] = pancreas, 1 h, read-out: Biodistribution Pancreas
# [26] = pancreas, 1 h blocked (7.5 μg LY2510924 i.p.), read-out: Biodistribution Pancreas
# [27] = spleen, 1 h, read-out: Biodistribution Spleen
# [28] = spleen, 1 h blocked (7.5 μg LY2510924 i.p.), read-out: Biodistribution Spleen
# [29] = stomach, 1 h, read-out: Biodistribution Stomach
# [30] = stomach, 1 h blocked (7.5 μg LY2510924 i.p.), read-out: Biodistribution Stomach
# [31] = testes, 1 h, read-out: Biodistribution Testes
# [32] = testes, 1 h blocked (7.5 μg LY2510924 i.p.), read-out: Biodistribution Testes
# [33] = 1 h blocked (7.5 μg LY2510924 i.p.)
smiles,measurement,setting,value
"CC(C)NCCCC[C@@H]1NC(=O)[C@H](Cc2ccc(O)cc2)NC(=O)[C@H](Cc2ccccc2)NC(=O)CC[C@H](C(=O)N[C@@H](CCCCNC(C)C)C(=O)N[C@@H](CCCCNC(=O)[C@H](CCC(=O)O)NC(=O)[C@H](CCC(=O)O)NC(=O)[C@H](CCC(=O)O)NC(=O)CN2CCN(CC(=O)O)CCN(CC(=O)O)CCN(CC(=O)O)CC2)C(N)=O)NC(=O)CNC(=O)[C@H](Cc2ccc3ccccc3c2)NC(=O)[C@@H](CCCNC(=N)N)NC1=O [[^68Ga]Ga-BL02, metal not drawn] (FY[Lys(iPr)][dR][2Nal]G[dE][Lys(iPr)]K([Glu-Glu-Glu-DOTA])-NH2; lactam N-7)",tissue uptake at 1 h,"[1]; Jeko1 tumor, 1 h, read-out: Biodistribution Jeko1 (tumor)",11.4 %ID/g
same,tissue uptake at 1 h,"[1]; Jeko1 tumor, 1 h blocked (7.5 μg LY2510924 i.p.), read-out: Biodistribution Jeko1 (tumor)",1.32 %ID/g
same,tissue uptake at 1 h,[1]; [5],0.23 %ID/g
same,tissue uptake at 1 h,[1]; [6],0.47 %ID/g
same,tissue uptake at 1 h,[1]; [7],0.47 %ID/g
same,tissue uptake at 1 h,[1]; [8],0.18 %ID/g
same,tissue uptake at 1 h,[1]; [9],0.02 %ID/g
same,tissue uptake at 1 h,[1]; [10],0.03 %ID/g
same,tissue uptake at 1 h,[1]; [11],0.05 %ID/g
same,tissue uptake at 1 h,[1]; [12],0.14 %ID/g
same,tissue uptake at 1 h,[1]; [13],0.13 %ID/g
same,tissue uptake at 1 h,[1]; [14],0.35 %ID/g
same,tissue uptake at 1 h,[1]; [15],0.19 %ID/g
same,tissue uptake at 1 h,[1]; [16],0.44 %ID/g
same,tissue uptake at 1 h,[1]; [17],3.32 %ID/g
same,tissue uptake at 1 h,[1]; [18],8.91 %ID/g
same,tissue uptake at 1 h,[1]; [19],0.77 %ID/g
same,tissue uptake at 1 h,[1]; [20],0.55 %ID/g
same,tissue uptake at 1 h,[1]; [21],0.74 %ID/g
same,tissue uptake at 1 h,[1]; [22],1.05 %ID/g
same,tissue uptake at 1 h,[1]; [23],0.06 %ID/g
same,tissue uptake at 1 h,[1]; [24],0.2 %ID/g
same,tissue uptake at 1 h,[1]; [25],0.09 %ID/g
same,tissue uptake at 1 h,[1]; [26],0.26 %ID/g
same,tissue uptake at 1 h,[1]; [27],0.7 %ID/g
same,tissue uptake at 1 h,[1]; [28],0.57 %ID/g
same,tissue uptake at 1 h,[1]; [29],0.06 %ID/g
same,tissue uptake at 1 h,[1]; [30],0.13 %ID/g
same,tissue uptake at 1 h,[1]; [31],0.14 %ID/g
same,tissue uptake at 1 h,[1]; [32],0.29 %ID/g
same,tissue uptake at 1 h,"[1]; whole blood, 1 h, read-out: Biodistribution Blood",0.38 %ID/g
same,tissue uptake at 1 h,"[1]; whole blood, 1 h blocked (7.5 μg LY2510924 i.p.), read-out: Biodistribution Blood",1.08 %ID/g
same,% Intact Peptide,[2],>99%
same,tissue uptake at 1 h,"[3]; PC3 tumor, 1 h, read-out: Biodistribution PC3 (tumor)",1.83 %ID/g
same,tissue uptake at 1 h,"[3]; PC3 tumor, 1 h blocked (7.5 μg LY2510924 i.p.), read-out: Biodistribution PC3 (tumor)",0.75 %ID/g
same,tissue uptake at 2 h,"[3]; PC3 tumor, read-out: Biodistribution PC3 (tumor)",1.41 %ID/g
same,tissue uptake at 1 h,[3]; [5],0.18 %ID/g
same,tissue uptake at 1 h,[3]; [6],0.18 %ID/g
same,tissue uptake at 2 h,"[3]; adrenals, read-out: Biodistribution Adrenals",0.1 %ID/g
same,tissue uptake at 1 h,"[3]; blood, 1 h, read-out: Biodistribution Blood",0.33 %ID/g
same,tissue uptake at 1 h,"[3]; blood, 1 h blocked (7.5 μg LY2510924 i.p.), read-out: Biodistribution Blood",0.54 %ID/g
same,tissue uptake at 2 h,"[3]; blood, read-out: Biodistribution Blood",0.06 %ID/g
same,tissue uptake at 1 h,[3]; [7],0.12 %ID/g
same,tissue uptake at 1 h,[3]; [8],0.15 %ID/g
same,tissue uptake at 2 h,"[3]; bone, read-out: Biodistribution Bone",0.11 %ID/g
same,tissue uptake at 1 h,[3]; [9],0.01 %ID/g
same,tissue uptake at 1 h,[3]; [10],0.02 %ID/g
same,tissue uptake at 2 h,"[3]; brain, read-out: Biodistribution Brain",0.01 %ID/g
same,tissue uptake at 1 h,[3]; [11],0.2 %ID/g
same,tissue uptake at 1 h,[3]; [12],0.16 %ID/g
same,tissue uptake at 2 h,"[3]; fat, read-out: Biodistribution Fat",0.01 %ID/g
same,tissue uptake at 1 h,[3]; [13],0.14 %ID/g
same,tissue uptake at 1 h,[3]; [14],0.21 %ID/g
same,tissue uptake at 2 h,"[3]; heart, read-out: Biodistribution Heart",0.06 %ID/g
same,tissue uptake at 1 h,[3]; [15],0.18 %ID/g
same,tissue uptake at 1 h,[3]; [16],0.25 %ID/g
same,tissue uptake at 2 h,"[3]; intestine, read-out: Biodistribution Intestine",0.14 %ID/g
same,tissue uptake at 1 h,[3]; [17],3.6 %ID/g
same,tissue uptake at 1 h,[3]; [18],3.75 %ID/g
same,tissue uptake at 2 h,"[3]; kidney, read-out: Biodistribution Kidney",4.67 %ID/g
same,tissue uptake at 1 h,[3]; [19],0.55 %ID/g
same,tissue uptake at 1 h,[3]; [20],0.5 %ID/g
same,tissue uptake at 2 h,"[3]; liver, read-out: Biodistribution Liver",0.73 %ID/g
same,tissue uptake at 1 h,[3]; [21],0.5 %ID/g
same,tissue uptake at 1 h,[3]; [22],0.6 %ID/g
same,tissue uptake at 2 h,"[3]; lung, read-out: Biodistribution Lung",0.33 %ID/g
same,tissue uptake at 1 h,[3]; [23],0.08 %ID/g
same,tissue uptake at 1 h,[3]; [24],0.11 %ID/g
same,tissue uptake at 2 h,"[3]; muscle, read-out: Biodistribution Muscle",0.03 %ID/g
same,tissue uptake at 1 h,[3]; [25],0.1 %ID/g
same,tissue uptake at 1 h,[3]; [26],0.12 %ID/g
same,tissue uptake at 2 h,"[3]; pancreas, read-out: Biodistribution Pancreas",0.04 %ID/g
same,tissue uptake at 1 h,[3]; [27],0.28 %ID/g
same,tissue uptake at 1 h,[3]; [28],0.37 %ID/g
same,tissue uptake at 2 h,"[3]; spleen, read-out: Biodistribution Spleen",0.25 %ID/g
same,tissue uptake at 1 h,[3]; [29],0.05 %ID/g
same,tissue uptake at 1 h,[3]; [30],0.06 %ID/g
same,tissue uptake at 2 h,"[3]; stomach, read-out: Biodistribution Stomach",0.06 %ID/g
same,tissue uptake at 1 h,[3]; [31],0.18 %ID/g
same,tissue uptake at 1 h,[3]; [32],0.35 %ID/g
same,tissue uptake at 2 h,"[3]; testes, read-out: Biodistribution Testes",0.06 %ID/g
same,Ratio Tumor: Blood,[4]; 1 h,5.74
same,Ratio Tumor: Bone,[4]; 1 h,15.68
same,Ratio Tumor: Liver,[4]; 1 h,3.31
same,Ratio Tumor: Lung,[4]; 1 h,3.71
same,Ratio Tumor: Muscle,[4]; 1 h,23.74
same,Ratio Tumor: Spleen,[4]; 1 h,6.62
same,Ratio Tumor: Blood,[4]; [33],1.56
same,Ratio Tumor: Bone,[4]; [33],6.16
same,Ratio Tumor: Liver,[4]; [33],1.62
same,Ratio Tumor: Lung,[4]; [33],1.36
same,Ratio Tumor: Muscle,[4]; [33],7.68
same,Ratio Tumor: Spleen,[4]; [33],2.16
same,Ratio Tumor: Blood,[4]; 2h,25.33
same,Ratio Tumor: Bone,[4]; 2h,13.96
same,Ratio Tumor: Liver,[4]; 2h,1.99
same,Ratio Tumor: Lung,[4]; 2h,4.36
same,Ratio Tumor: Muscle,[4]; 2h,55.01
same,Ratio Tumor: Spleen,[4]; 2h,5.63
